Measurements from ChEMBL document CHEMBL3430912, “GSK Tres Cantos Anti-Kinetoplastid Screening (TCAKS) Data”.

What was measured:
Trypanosoma cruzi [1] = test: GSK_TCAKS: pIC50 Trypanosoma cruzi viability assay using beta-GAL activity. This assay was run at single shot at 5uM compound concentration per well. The biological reagents consisted of NIH-3T3 host cells and trypomastigotes parasitic cells; both cell types were set to a 3.3 * 10^5 cells/mL dilution in assay DMEM by means of a CASY cell counter device using a 60um capillary. 6 uL of the mixture were dispensed per well (about 1 * 10^3 host-cells and 1 * 10^3 parasites) with a Multidrop Combi dispenser. […] In all wells, the percentage of DMSO never exceeded 0.5%. Plates incubated for four days at 37C, 5% CO2. The substrate used for the assay fluorescence intensity (FLINT) readout was resorufin-beta-D-galactopiranoside (Sigma-Aldrich) at 5uM per well. It was diluted in PBS supplemented with the soft detergent Igepal (Fluka).; type: functional, organism-based, Mus musculus; details: Tulahuen, NIH3T3
Trypanosoma cruzi [2] = test: (§1) GSK_TCAKS: pIC50 Trypanosoma cruzi Imaging: Infected Cells. […] Cells were then washed once with PBS before infection. T. cruzi trypomastigotes, collected at days 5 to 8 after infection from LLC-MK2 parasite infected cultures, were allowed to swim out for 4h at 37C from a centrifuged pellet (2,500 rpm/10 min/room temperature). Trypomastigotes were then collected and counted in a CASY Cell Counter. Trypomastigotes, in supplemented DMEM, were added to H9c2 cultures in a multiplicity of infection of 1 and incubated for 18 h. Cells were washed once with PBS before incubation of the infected H9c2 monolayer with trypsin (Life-Technologies) to detach cells from the flask. Cells were counted in a CASY Cell Counter using a 150 um capillary and their density set at 5 * 10^4 cells per mL in supplemented assay DMEM. Infected H9c2 were dispensed into 384-well poly-lysine coated assay plates at 50uL per well using a Multidrop Combi dispenser. After seeding them, the plates were incubated at 37C, 5% CO2 for 72h. Cultures were then fixed and stained by addition of 50 uL of a solution containing 8% formaldehyde and 4 uM DRAQ5 DNA dye (BioStatus, UK) per well. […] Five images were collected per well for reliable statistical analysis. Automated image analysis was performed with a script developed on Acapella High Content Imaging and Analysis Software (PerkinElmer). Output: percentage of infected cells per well as a second infection marker.; type: functional, organism-based, Rattus norvegicus; details: H9c2, 4 h
Trypanosoma cruzi [3] = test: GSK_TCAKS: pIC50 Trypanosoma cruzi Imaging: Amastigotes/Cell. […] Cells were then washed once with PBS before infection. T. cruzi trypomastigotes, collected at days 5 to 8 after infection from LLC-MK2 parasite infected cultures, were allowed to swim out for 4h at 37C from a centrifuged pellet (2,500 rpm/10 min/room temperature). Trypomastigotes were then collected and counted in a CASY Cell Counter. Trypomastigotes, in supplemented DMEM, were added to H9c2 cultures in a multiplicity of infection of 1 and incubated for 18 h. Cells were washed once with PBS before incubation of the infected H9c2 monolayer with trypsin (Life-Technologies) to detach cells from the flask. Cells were counted in a CASY Cell Counter using a 150 um capillary and their density set at 5 * 10^4 cells per mL in supplemented assay DMEM. Infected H9c2 were dispensed into 384-well poly-lysine coated assay plates at 50uL per well using a Multidrop Combi dispenser. After seeding them, the plates were incubated at 37C, 5% CO2 for 72h. Cultures were then fixed and stained by addition of 50 uL of a solution containing 8% formaldehyde and 4 uM DRAQ5 DNA dye (BioStatus, UK) per well. […] Five images were collected per well for reliable statistical analysis. Automated image analysis was performed with a script developed on Acapella High Content Imaging and Analysis Software (PerkinElmer). Output: number of amastigotes per cell as infection level measurement.; type: functional, organism-based, Rattus norvegicus; details: H9c2, 4 h
Trypanosoma cruzi [4] = test: as §1, with “H2C9” for “Trypanosoma cruzi”, “H9c2 Host Cardiomyocytes.” for “Infected Cells.”, “Number” for “percentage”, “H9c2 Host Cardiomyocytes nuclei to determine drug-related cytotoxicity.” for “infected cells per well as a second infection marker.”; type: functional, organism-based, Rattus norvegicus; details: H9c2, 4 h
Leishmania donovani [5] = test: GSK_TCAKS: pIC50 Leishmania donovani viability assay using fluorescence intensity. Assay plates (1536-well) were prepared by adding 30nL per well of compound. For single shot assay, the final compound concentration was 5uM. […] Briefly, eGFP LdBOB axenic amastigotes were harvested, fixed and counted in a CASY cell counter (Roche-Applied Science). A final concentration of 1.5 * 10^5 cells per well were prepared in amastigote media containing 500 U/mL penicillin/streptomycin (Invitrogen) and 6uL was dispensed to each experimental well using a Multidrop Combi dispenser (Thermo Scientific). 6uL of assay media was dispensed to control columns used as reference for 100% compound response. Following incubation for 72 h at 37C, 5% CO2, 2 uL of resazurin was added to each well at a final concentration of 0.5 mM in phosphate buffered saline (PBS) with IGEPAL (Sigma-Aldrich), 0.05% (v/v).; type: functional, organism-based
Leishmania donovani [6] = test: GSK_TCAKS: pIC50 Leishmania donovani Imaging: Infected Macrophages. Assay plates (384-well) were prepared by adding 250nL of compound to each well. For single shot assay, the final compound concentration was 5 uM. […] Automated image analysis was performed with a script developed on Acapella High Content Imaging and Analysis Software (PerkinElmer). Output: Percent of infected macrophage cells were reported for each well.; type: functional, organism-based, Homo sapiens; details: THP-1
Leishmania donovani [7] = test: GSK_TCAKS: pIC50 Leishmania donovani Imaging: Amastigotes/Macrophages. Assay plates (384-well) were prepared by adding 250nL of compound to each well. For single shot assay, the final compound concentration was 5 uM. […] Automated image analysis was performed with a script developed on Acapella High Content Imaging and Analysis Software (PerkinElmer). Output: Average number of amastigotes per macrophage cell were reported for each well.; type: functional, organism-based, Homo sapiens; details: THP-1
Leishmania donovani [8] = test: GSK_TCAKS: pIC50 Leishmania donovani Imaging: THP-1 Host Macrophages. Assay plates (384-well) were prepared by adding 250nL of compound to each well. For single shot assay, the final compound concentration was 5 uM. […] Automated image analysis was performed with a script developed on Acapella High Content Imaging and Analysis Software (PerkinElmer). Output: THP-1 cell count were reported for each well.; type: functional, organism-based, Homo sapiens
[9] = test system: Trypanosoma brucei brucei; test: GSK_TCAKS: pIC50 Trypanosoma brucei viability assay using fluorescence intensity. Assay plates (1536-well) were prepared by dispensing 25nL of compound solution per well using an Echo acoustic dispenser (Labcyte).; type: functional, organism-based; details: Lister 427, 2 h
[10] = test system: Trypanosoma brucei brucei; test: GSK_TCAKS: pIC50 Trypanosoma brucei viability assay using luminiscence. Assay plates (1536-well) were prepared. T. brucei cultures were harvested and counted in a CASY cell counter. A parasite suspension was prepared at a final concentration of 5 * 10^4 cells/mL in complete HMI9 medium and 6uL was dispensed to all wells containing compounds using a Multidrop Combi dispenser. 6uL of HMI9 media with 0.4% DMSO were dispensed to control columns. Plates were incubated for 24 h at 37C, 5% CO2 then tempered for 10 min at room temperature. ATP content was quantified by adding 4 uL of CellTiter-Glo Reagent (Promega) according to the manufacturer's instructions. Luminescence was measured using a ViewLux.; type: functional, organism-based; details: Lister 427, CASY
[11] = GSK_TCAKS: pIC50 HepG2 human cell line viability assay using luminiscence. […] Seeding density was checked to ensure that new mono-layers were not more than 50% confluent at the time of harvesting. Cell suspension was added to 500 mL of the same medium at a final density of 1.2 * 10^5 cells/mL. This cell suspension was dispensed (25 uL, 3000 cells per well) into 384-well clear-bottom plates using a Multidrop Combi dispenser. Prior to addition of the cell suspension, the screening compounds (250 nL) were pre-dispensed into the plates with an Echo liquid handler. Plates were incubated for 48 h at 37C, 5% CO2. After incubation, plates equilibrated at room temperature for 30 min before proceeding to develop the luminescent signal. The signal developer, CellTiter-Glo Reagent, was allowed to equilibrate at room temperature for 30 min and added to the plates (25uL per well) using a Multidrop Combi dispenser. Plates were left for 10 min at room temperature for stabilization and then read using a ViewLux.; type: toxicity, cell-based
NIH3T3 = test: GSK_TCAKS: pIC50 NIH 3T3 cell line viability assay using luminiscence. Tissue culture surface treated assay plates (1536-well) were used. […] The 100% cells survival control was determined exposing the host-cells to a 0.5% DMSO concentration, whereas the 100% toxicity control was achieved by seeding the cells in presence of Amphotericin B at 50uM. Plates were incubated for four days at 37C, 5% CO2. The assay readout was developed by addition of 5uL of CellTiter-Glo Reagent following the manufacturer's instructions. Luminiscence was measured using a ViewLux.; type: functional, cell-based; details: Mus musculus, NIH3T3, 96 h
[12] = biological target: Sterol 14-alpha demethylase (Trypanosoma cruzi (strain CL Brener), UniProt Q7Z1V1); test: GSK_TCAKS: pIC50 CYP51 from Trypanosoma cruzi.; type: functional
Sterol 14-alpha demethylase, sequence (Q7Z1V1 whole entry): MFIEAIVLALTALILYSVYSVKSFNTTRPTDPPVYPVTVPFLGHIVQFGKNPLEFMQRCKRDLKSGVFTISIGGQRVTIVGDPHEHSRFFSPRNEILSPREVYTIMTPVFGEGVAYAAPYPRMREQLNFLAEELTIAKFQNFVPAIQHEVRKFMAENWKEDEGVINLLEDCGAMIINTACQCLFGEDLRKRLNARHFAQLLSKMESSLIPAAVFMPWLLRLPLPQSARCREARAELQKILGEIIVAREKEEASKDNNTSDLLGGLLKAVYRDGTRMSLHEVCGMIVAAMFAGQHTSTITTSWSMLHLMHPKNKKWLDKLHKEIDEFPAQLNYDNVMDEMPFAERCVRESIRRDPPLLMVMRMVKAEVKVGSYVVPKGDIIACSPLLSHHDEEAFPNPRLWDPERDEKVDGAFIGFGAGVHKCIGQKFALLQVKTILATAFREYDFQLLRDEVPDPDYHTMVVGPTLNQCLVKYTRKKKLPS

| SMILES | IC50 (Trypanosoma cruzi [1]) | IC50 (Trypanosoma cruzi [2]) | IC50 (Trypanosoma cruzi [3]) | IC50 (Trypanosoma cruzi [4]) | IC50 (Leishmania donovani [5]) | IC50 (Leishmania donovani [6]) | IC50 (Leishmania donovani [7]) | IC50 (Leishmania donovani [8]) | IC50 [9] | IC50 [10] | IC50 at 48 h [11] | IC50 (NIH3T3) | IC50 [12] |
| --- | --- | --- | --- | --- | --- | --- | --- | --- | --- | --- | --- | --- | --- |
| O=C(NCc1nnc2n1CCCCC2)c1ccc(-c2ccc(F)cc2)o1 | 1.41 µM | 1.58 µM | 1 µM | > 50.1 µM | > 50.1 µM | > 50.1 µM | > 50.1 µM | > 50.1 µM | 0.126 µM | 0.251 µM | > 100 µM | > 50.1 µM | 79.4 µM |
| CN(C(=O)Nc1ccc2c(c1)CCN(C1CCC1)CC2)c1ccc(C#N)cc1 | 2 µM | 3.98 µM | 2 µM | > 50.1 µM | 39.8 µM | > 50.1 µM | > 50.1 µM | > 50.1 µM | 0.2 µM | 0.631 µM | > 100 µM | 39.8 µM | > 100 µM |
| CCCC(=O)N(Cc1ccccn1)c1nc2ccccc2s1 | 0.126 µM | 0.1 µM | 0.0794 µM | > 50.1 µM | 7.94 µM | > 50.1 µM | 10 µM | > 50.1 µM | 20 µM | > 39.8 µM | > 100 µM | > 50.1 µM | 0.0501 µM |
| O=C1CCCCCC1(Cc1cnc[nH]1)c1ccc(Cl)cc1Cl (stereo not given) | 0.251 µM | 0.251 µM | 0.316 µM | > 50.1 µM | > 50.1 µM | > 50.1 µM | 6.31 µM | > 50.1 µM | > 39.8 µM | > 39.8 µM | 79.4 µM | 20 µM | 0.1 µM |
| Cc1nc2[nH]c(C)c(Cc3ccc(C(C)C)cc3)c(=O)n2n1 | 0.501 µM | 0.794 µM | 0.251 µM | > 50.1 µM | 1.26 µM | 31.6 µM | 15.8 µM | > 50.1 µM | > 39.8 µM | > 39.8 µM | > 100 µM | > 50.1 µM | > 100 µM |
| O=C(NCC1CCCCC1)c1cc(=O)c2ccccc2o1 | 0.447 µM | 0.631 µM | 0.501 µM | 31.6 µM | 5.01 µM | 15.8 µM | 6.31 µM | > 50.1 µM | 1 µM | 1.26 µM | 25.1 µM | 31.6 µM | > 100 µM |
| Oc1nccc2ccc(-c3ccncc3)cc12 | 0.2 µM | 0.251 µM | 0.251 µM | > 50.1 µM | > 50.1 µM | > 50.1 µM | 20 µM | 39.8 µM | 31.6 µM | > 39.8 µM | > 100 µM | > 50.1 µM | 0.0158 µM |
| CCC(c1ccc(F)cc1)n1cncc1-c1cnn(C)c1 (stereo not given) | 0.2 µM | 0.316 µM | 0.316 µM | > 50.1 µM | > 50.1 µM | > 50.1 µM | > 50.1 µM | > 50.1 µM | > 39.8 µM | > 39.8 µM | > 100 µM | 25.1 µM | 0.0794 µM |
| O[C@H]1CC[C@H](Nc2nccc(-c3sc(C4CCOCC4)nc3-c3ccc(F)c(F)c3)n2)CC1 | 0.316 µM | 0.316 µM | 0.2 µM | 31.6 µM | 3.16 µM | 5.01 µM | 2.51 µM | 20 µM | 2 µM | 3.98 µM | 25.1 µM | 39.8 µM | > 100 µM |
| Cc1cc(N(C)C)nc(Nc2ccccc2C)n1 | 1.58 µM | 0.794 µM | 0.501 µM | > 50.1 µM | > 50.1 µM | 31.6 µM | 15.8 µM | 39.8 µM | 31.6 µM | > 39.8 µM | 63.1 µM | 39.8 µM | > 100 µM |
